Assay results as given in patent US11098073B2, “Triphenylphosphonium-tethered tetracyclines for use in treating cancer” (Oxford University Innovation Limited, priority 2017, dated 2021).
Counter-ions that a name gives are not always drawn.

Each molecule was assayed on MDA-231 cancer cells (assay: Inhibition of proliferation assay: cell confluence (IncuCyte live cell imaging)). Details: compound tested at 10 μM, images every 3 h over 4-5 d, relative confluence normalised to time zero.
Assay type: cell-based
Excerpt: Inhibition of Proliferation Assay
The confluence value is a surrogate for cell proliferation and growth. The value is expressed as a percent confluence, which represents the fraction of culture dish-surface that is occupied by cells. As the number of cells in the dish increases over time due to proliferation, so will their coverage of that surface increase. Expansion of the cell population on the cell culture-dish surface and confluence have mostly a linear relationship until the cells on the plate surface begin to reach saturation or maximum density.
Confluence is determined based on image analysis. Image based software can identify objects in the image field base on changes to pixel density in a grey scale image. The software can then assign a mask to those pixels within the object. Objects can be ‘gated’ out based on size and shape. To determine cell confluence, images of cells are first masked as objects. The surface area of the image that is masked is measured and compared to the total surface area of the culture dish surface to obtain a percent confluence.
MDA-231 cancer cells were obtained from ATCC. Cells were cultured in Dulbecco's Modified Eagle Medium (DMEM) supplemented with 10% Fetal Bovine Serum (FBS), 2 mM Glutamax, 1 mM Non Essential Amino Acid (NEAA) solution and 1 mM sodium pyruvate. […] Final DMSO concentrations were […]. Images were acquired with an IncuCyte Live Cell Imaging microscopy (Essen Bioscience) at every 3 h under cell culture conditions with 10 OX objective over 4-5 d. Cell confluence was calculated from one field of view per well using the IncuCyte in-built algorithm. Relative confluence values were obtained by normalising each value to the time zero value in each sample.
In the case of `C[C@H]1c2cccc(O)c2C(=O)C2=C(O)[C@]3(O)C(=O)C(C(N)=O)=C(O)[C@@H](N(C)C)[C@@H]3[C@@H](O)[C@@H]21` [Doxycycline, reference compound], the “% Confluence” value is reported as 98.7%. For `C[C@H]1c2ccc(NC(=O)CCCCCCCCCCC[P+](c3ccccc3)(c3ccccc3)c3ccccc3)c(O)c2C(=O)C2=C(O)[C@]3(O)C(=O)C(C(N)=O)=C(O)[C@@H](N(C)C)[C@@H]3[C@@H](O)[C@@H]21` [Example 1, (11-{[(5R,5aR,6S,6aR,7S,10aS)-9-carbamoyl-7-(dimethylamino)-1,6,8,10a,11-pentahydroxy-5-methyl-10,12-dioxo-5,5a,6,6a,7,10,10a,12-octahydrotetracen-2-yl]carbamoyl}undecyl)triphenylphosphonium formate], the “% Confluence” value was 27.1%. In the case of `C[C@H]1c2ccc(NC(=O)CCCCCCC[P+](c3ccccc3)(c3ccccc3)c3ccccc3)c(O)c2C(=O)C2=C(O)[C@]3(O)C(=O)C(C(N)=O)=C(O)[C@@H](N(C)C)[C@@H]3[C@@H](O)[C@@H]21` [Example 2, (7-{[(5R,5aR,6S,6aR,7S,10aS)-9-carbamoyl-7-(dimethylamino)-1,6,8,10a,11-pentahydroxy-5-methyl-10,12-dioxo-5,5a,6,6a,7,10,10a,12-octahydrotetracen-2-yl]carbamoyl}heptyl)triphenylphosphonium formate], the “% Confluence” value is reported as 81.2%. For `C[C@H]1c2ccc(NC(=O)CNC(=O)CCCCCCC[PH](c3ccccc3)(c3ccccc3)c3ccccc3)c(O)c2C(=O)C2=C(O)[C@]3(O)C(=O)C(C(N)=O)=C(O)[C@@H](N(C)C)[C@@H]3[C@@H](O)[C@@H]21` [Example 3, {7-[({[(5R,5aR,6S,6aR,7S,10aS)-9-carbamoyl-7-(dimethylamino)-1,6,8,10a,11-pentahydroxy-5-methyl-10,12-dioxo-5,5a,6,6a,7,10,10a,12-octahydrotetracen-2-yl]carbamoyl}methyl)carbamoyl]heptyl}triphenylphosphonium trifluoroacetate], the “% Confluence” value was 99.9%. With `C[C@H]1c2c(NC(=O)CCCCCCC[P+](c3ccccc3)(c3ccccc3)c3ccccc3)ccc(O)c2C(=O)C2=C(O)[C@]3(O)C(=O)C(C(N)=O)=C(O)[C@@H](N(C)C)[C@@H]3[C@@H](O)[C@@H]21` [Example 4, (7-{[(6aS,10S,10aR,11S,11aR,12R)-8-carbamoyl-10-(dimethylamino)-4,6,6a,9,11-pentahydroxy-12-methyl-5,7-dioxo-5,6a,7,10,10a,11,11a,12-octahydrotetracen-1-yl]carbamoyl}heptyl)triphenylphosphonium trifluoroacetate] the “% Confluence” value was 124.3%. For `C[C@H]1c2ccc(CNC(=O)CCCCCCCCC[P+](c3ccccc3)(c3ccccc3)c3ccccc3)c(O)c2C(=O)C2=C(O)[C@]3(O)C(=O)C(C(N)=O)=C(O)[C@@H](N(C)C)[C@@H]3[C@@H](O)[C@@H]21` [Example 5, trifluoroacetate], the “% Confluence” value was 37%. With `C[C@H]1c2ccc(NC(=O)CCCCCCCCCC[P+](c3ccccc3)(c3ccccc3)c3ccccc3)c(O)c2C(=O)C2=C(O)[C@]3(O)C(=O)C(C(N)=O)=C(O)[C@@H](N(C)C)[C@@H]3[C@@H](O)[C@@H]21` [Example 6, (10-{[(5R,5aR,6S,6aR,7S,10aS)-9-carbamoyl-7-(dimethylamino)-1,6,8,10a,11-pentahydroxy-5-methyl-10,12-dioxo-5,5a,6,6a,7,10,10a,12-octahydrotetracen-2-yl]carbamoyl}decyl)triphenylphosphonium trifluoroacetate] the “% Confluence” value was 36.8%. `C[C@H]1c2ccc(NC(=O)CCCCCCCCC[P+](c3ccccc3)(c3ccccc3)c3ccccc3)c(O)c2C(=O)C2=C(O)[C@]3(O)C(=O)C(C(N)=O)=C(O)[C@@H](N(C)C)[C@@H]3[C@@H](O)[C@@H]21` [Example 7, (9-{[(5R,5aR,6S,6aR,7S,10aS)-9-carbamoyl-7-(dimethylamino)-1,6,8,10a,11-pentahydroxy-5-methyl-10,12-dioxo-5,5a,6,6a,7,10,10a,12-octahydrotetracen-2-yl]carbamoyl}nonyl)triphenylphosphonium trifluoroacetate] was tested, and the “% Confluence” value was 38.7%. With `C[C@H]1c2ccc(NC(=O)CNC(=O)CCCCC[P+](c3ccccc3)(c3ccccc3)c3ccccc3)c(O)c2C(=O)C2=C(O)[C@]3(O)C(=O)C(C(N)=O)=C(O)[C@@H](N(C)C)[C@@H]3[C@@H](O)[C@@H]21` [Example 8, {5-[({[(5R,5aR,6S,6aR,7S,10aS)-9-carbamoyl-7-(dimethylamino)-1,6,8,10a,11-pentahydroxy-5-methyl-10,12-dioxo-5,5a,6,6a,7,10,10a,12-octahydrotetracen-2-yl]carbamoyl}methyl)carbamoyl]pentyl}triphenylphosphonium trifluoroacetate] the “% Confluence” value was 96.2%. In the case of `C[C@H]1c2ccc(NC(=O)CNC(=O)CCC[P+](c3ccccc3)(c3ccccc3)c3ccccc3)c(O)c2C(=O)C2=C(O)[C@]3(O)C(=O)C(C(N)=O)=C(O)[C@@H](N(C)C)[C@@H]3[C@@H](O)[C@@H]21` [Example 9, {3-[({[(5R,5aR,6S,6aR,7S,10aS)-9-carbamoyl-7-(dimethylamino)-1,6,8,10a,11-pentahydroxy-5-methyl-10,12-dioxo-5,5a,6,6a,7,10,10a,12-octahydrotetracen-2-yl]carbamoyl}methyl)carbamoyl]propyl}triphenylphosphonium trifluoroacetate], the “% Confluence” value is reported as 83%. For `C[C@H]1c2ccc(NC(=O)CCNC(=O)CCCCCCC[P+](c3ccccc3)(c3ccccc3)c3ccccc3)c(O)c2C(=O)C2=C(O)[C@]3(O)C(=O)C(C(N)=O)=C(O)[C@@H](N(C)C)[C@@H]3[C@@H](O)[C@@H]21` [Example 10, {7-[(2-{[(5R,5aR,6S,6aR,7S,10aS)-9-carbamoyl-7-(dimethylamino)-1,6,8,10a,11-pentahydroxy-5-methyl-10,12-dioxo-5,5a,6,6a,7,10,10a,12-octahydrotetracen-2-yl]carbamoyl}ethyl)carbamoyl]heptyl}triphenylphosphonium trifluoroacetate], the “% Confluence” value was 92.2%. `C[C@H]1c2ccc(NC(=O)CCNC(=O)CCCCCCCCC[P+](c3ccccc3)(c3ccccc3)c3ccccc3)c(O)c2C(=O)C2=C(O)[C@]3(O)C(=O)C(C(N)=O)=C(O)[C@@H](N(C)C)[C@@H]3[C@@H](O)[C@@H]21` [Example 11, {9-[(2-{[(5R,5aR,6S,6aR,7S,10aS)-9-carbamoyl-7-(dimethylamino)-1,6,8,10a,11-pentahydroxy-5-methyl-10,12-dioxo-5,5a,6,6a,7,10,10a,12-octahydrotetracen-2-yl]carbamoyl}ethyl)carbamoyl]nonyl}triphenylphosphonium trifluoroacetate] was tested, and the “% Confluence” value was 45%. For `C[C@H]1c2ccc(NC(=O)CCNC(=O)CCCC[P+](c3ccccc3)(c3ccccc3)c3ccccc3)c(O)c2C(=O)C2=C(O)[C@]3(O)C(=O)C(C(N)=O)=C(O)[C@@H](N(C)C)[C@@H]3[C@@H](O)[C@@H]21` [Example 12, {4-[(2-{[(5R,5aR,6S,6aR,7S,10aS)-9-carbamoyl-7-(dimethylamino)-1,6,8,10a,11-pentahydroxy-5-methyl-10,12-dioxo-5,5a,6,6a,7,10,10a,12-octahydrotetracen-2-yl]carbamoyl}ethyl)carbamoyl]butyl}triphenylphosphonium trifluoroacetate], the “% Confluence” value was 91.9%. `C[C@H]1c2c(NC(=O)CCCCCCCCCCC[P+](c3ccccc3)(c3ccccc3)c3ccccc3)ccc(O)c2C(=O)C2=C(O)[C@]3(O)C(=O)C(C(N)=O)=C(O)[C@@H](N(C)C)[C@@H]3[C@@H](O)[C@@H]21` [Example 13, (11-{[(6aS,10S,10aR,11 S,11 aR,12R)-8-carbamoyl-10-(dimethylamino)-4,6,6a,9,11-pentahydroxy-12-methyl-5,7-dioxo-5,6a,7,10,10a,11,11a,12-octahydrotetracen-1-yl]carbamoyl}undecyl)triphenylphosphonium trifluoroacetate] was tested, and the “% Confluence” value was 53.7%. With `C[C@H]1c2c(NC(=O)CCCCCCCCC[P+](c3ccccc3)(c3ccccc3)c3ccccc3)ccc(O)c2C(=O)C2=C(O)[C@]3(O)C(=O)C(C(N)=O)=C(O)[C@@H](N(C)C)[C@@H]3[C@@H](O)[C@@H]21` [Example 14, (9-{[(6aS,10S,10aR,11 S,11 aR,12R)-8-carbamoyl-10-(dimethylamino)-4,6,6a,9,11-pentahydroxy-12-methyl-5,7-dioxo-5,6a,7,10,10a,11,11a,12-octahydrotetracen-1-yl]carbamoyl}nonyl)triphenylphosphonium trifluoroacetate] the “% Confluence” value was 87.9%. With `C[C@H]1c2c(NC(=O)CCNC(=O)CCCCCCC[P+](c3ccccc3)(c3ccccc3)c3ccccc3)ccc(O)c2C(=O)C2=C(O)[C@]3(O)C(=O)C(C(N)=O)=C(O)[C@@H](N(C)C)[C@@H]3[C@@H](O)[C@@H]21` [Example 15, {7-[(2-{[(6aS,10S,10aR,11S,11aR,12R)-8-carbamoyl-10-(dimethylamino)-4,6,6a,9,11-pentahydroxy-12-methyl-5,7-dioxo-5,6a,7,10,10a,11,11a,12-octahydrotetracen-1-yl]carbamoyl}ethyl)carbamoyl}heptyl}triphenylphosphonium trifluoroacetate] the “% Confluence” value was 112.8%.

Same assay, conditions: compound tested at 50 μM, images every 3 h over 4-5 d, relative confluence normalised to time zero
In the case of `C[C@H]1c2cccc(O)c2C(=O)C2=C(O)[C@]3(O)C(=O)C(C(N)=O)=C(O)[C@@H](N(C)C)[C@@H]3[C@@H](O)[C@@H]21` [Doxycycline, reference compound], the “% Confluence” value is reported as 91%.
